# Experimental data: US7045343B2, “Sterilization indicator test packs” (3M Innovative Properties Company, priority 1998, dated 2006)
# Key:
# [1] = tested on: Bacillus stearothermophilus spores; test: Spore outgrowth (color change) of indicators after prevacuum steam sterilization; format: cell-based; details: 4-pulse prevacuum steam 121° C., 7–13 min
# Description: (§1) The indicators prepared for the Examples were dual rapid readout indicators that provided both a rapid, enzyme-based efficacy test and a confirmatory spore outgrowth test. Spores coated on the carrier strip 16 served as the source of active enzyme whose activity was measured by the rapid enzyme test. These same spores were then incubated in the spore outgrowth portion of the test.
# (§2) Bacillus stearothermophilus, commercially available as ATCC 7953 from American Type Culture Collection, Rockville, Md., was grown overnight (16 hours) at 58° C. in tryptic soy broth. This culture was used to inoculate the surface of agar plates consisting of 8 g/l nutrient broth, 4 g/l yeast extract, 0.1 g/l manganese chloride and 20 g/l agar at pH 7.2. Plates were incubated at 58° C. for 72 hours. Spores were scraped from the plates and suspended in sterile distilled water. The spores were separated from the vegetative debris by centrifuging the suspension at 7000 rpm and 4° C. for 20 minutes. The supernatant was poured off and the spores were resuspended in sterile distilled water. The cleaning procedure was repeated several times. After the final wash, the spores were suspended in sterile distilled water, at a concentration of approximately 1×10^8 spores per milliliter.
# (§3) The spores were then treated with the chemicals identified in Tables 1–5. All chemicals tested were obtained from commercial sources. The spores were centrifuged at 6000 rpm for 10 minutes. The supernatant and coating chemical mixtures were heated at 60–80° C. for several minutes and vortexed to get the material into solution. The spores were then mixed into the sterilant-resistant chemical solution. The sterilant-resistant chemical solution was applied to 5×25 mm, 591 A paper strips (Schleicher & Schuell, Inc., Keene, N.H.) by pipetting 10–15 microliters to each strip for a final population of about 1×10^6 spores per strip. The strips were dried 16 hours at 37° C.
# (§4) The treated spore strips were placed on the bottom of the outer container 12 of the indicator 10 and a barrier was inserted between the spore strip 16 and the inner container 18, which contained enzyme substrate. A […] ( 11/16 inch) disc of polypropylene blown microfiber material, with a weight of 200 g/m^2, commercially available as “THINSULATE™ 200-B brand Thermal Insulation” from 3M Company, St. Paul, Minn., was used as the barrier. The inner container 18 contained 0.67 ml nutrient medium, consisting of 17 g of a bacteriological peptone and a 0.17 g/l of L-alanine, as well as 0.1 g 4-methylumbelliferyl-alpha-D-glucoside, commercially available from Sigma Chemical Company, St. Louis, Mo., dissolved in 200 microliters of N,N-dimethylformamide, and 0.03 g bromocresol purple pH indicator dye, per liter of water. The pH of the enzyme substrate and nutrient medium solution was adjusted to 7.6 with 0.1N sodium hydroxide.
# (§5) Sterilization indicators were made as described above with each of the chemicals and concentrations described in Table 1. Control indicators were made using untreated spores. The indicators were placed in metal instrument trays and exposed at 121° C. in a Getinge Steam Sterilizer (Getinge International, Inc., 1100 Towbin Ave., Lakewood, N.J.) using a 4-pulse prevacuum cycle at 121° C. with a vacuum level of 0.075–0.085 bar and a steam pulse to 1.00 bar for each pulse. Indicators were exposed in the sterilizer for between 7 and 13 minutes. This cycle is depicted in the time-pressure diagram in FIG. 5. After exposure the inner containers containing the enzyme substrate and nutrient medium were crushed and the indicators were incubated at 60° C. The indicators were examined for fluorescence using a 3M™ ATTEST™ Model 190 Rapid Autoreader, commercially available from 3M Company, St. Paul, Minn. Additionally, spore growth, as indicated by a color change from purple to yellow, was determined visually after 168 hours of incubation at 60° C. […]
# [2] = tested on: enzyme associated with Bacillus stearothermophilus spores; test: Rapid enzyme fluorescence readout of dual rapid readout indicators after prevacuum steam sterilization; format: biochemical; details: 4-pulse prevacuum steam 121° C.; for FLUORESCENCE - PERCENT POSITIVE 1 HR / FLUORESCENCE - PERCENT POSITIVE 2 HR / FLUORESCENCE - PERCENT POSITIVE 3 HR / FLUORESCENCE - PERCENT POSITIVE 4 HR / FLUORESCENCE - PERCENT POSITIVE 5 HR / FLUORESCENCE - PERCENT POSITIVE 6 HR: 7–13 min
# Description: as §1, §2, §3, §4, §5
substance,measurement,setting,value
POE(5) Glyceryl Monooleate,NO. GROWTH POSITIVE 168 HR,"[1]; Example 5, 50 mg/ml coating",2
same,NO. GROWTH POSITIVE 168 HR,"[1]; Example 5, 100 mg/ml coating",2
same,FLUORESCENCE - PERCENT POSITIVE 1 HR,"[2]; Example 5, 50 mg/ml coating",0%
same,FLUORESCENCE - PERCENT POSITIVE 2 HR,"[2]; Example 5, 50 mg/ml coating",0%
same,FLUORESCENCE - PERCENT POSITIVE 3 HR,"[2]; Example 5, 50 mg/ml coating",0%
same,FLUORESCENCE - PERCENT POSITIVE 4 HR,"[2]; Example 5, 50 mg/ml coating",0%
same,FLUORESCENCE - PERCENT POSITIVE 1 HR,"[2]; Example 5, 100 mg/ml coating",0%
same,FLUORESCENCE - PERCENT POSITIVE 2 HR,"[2]; Example 5, 100 mg/ml coating",0%
same,FLUORESCENCE - PERCENT POSITIVE 3 HR,"[2]; Example 5, 100 mg/ml coating",0%
same,FLUORESCENCE - PERCENT POSITIVE 4 HR,"[2]; Example 5, 100 mg/ml coating",0%
Decaglyceryl Diisostearate,NO. GROWTH POSITIVE 168 HR,"[1]; Example 5, 50 mg/ml coating",10
same,NO. GROWTH POSITIVE 168 HR,"[1]; Example 5, 100 mg/ml coating",14
same,accuracy of sterilization indicators compared to indicators made with untreated spores,[2],improved
same,FLUORESCENCE - PERCENT POSITIVE 1 HR,"[2]; Example 5, 50 mg/ml coating",30%
same,FLUORESCENCE - PERCENT POSITIVE 2 HR,"[2]; Example 5, 50 mg/ml coating",80.0%
same,FLUORESCENCE - PERCENT POSITIVE 3 HR,"[2]; Example 5, 50 mg/ml coating",100%
same,FLUORESCENCE - PERCENT POSITIVE 4 HR,"[2]; Example 5, 50 mg/ml coating",100%
same,FLUORESCENCE - PERCENT POSITIVE 1 HR,"[2]; Example 5, 100 mg/ml coating",28.6%
same,FLUORESCENCE - PERCENT POSITIVE 2 HR,"[2]; Example 5, 100 mg/ml coating",100.0%
same,FLUORESCENCE - PERCENT POSITIVE 3 HR,"[2]; Example 5, 100 mg/ml coating",100%
same,FLUORESCENCE - PERCENT POSITIVE 4 HR,"[2]; Example 5, 100 mg/ml coating",100%
Hexaglyceryl Monostearate,NO. GROWTH POSITIVE 168 HR,"[1]; Example 1, 5 mg/ml coating",50
same,NO. GROWTH POSITIVE 168 HR,"[1]; Example 1, 10 mg/ml coating",44
same,NO. GROWTH POSITIVE 168 HR,"[1]; Example 1, 20 mg/ml coating",44
same,FLUORESCENCE - PERCENT POSITIVE 1 HR,"[2]; Example 1, 5 mg/ml coating",0%
same,FLUORESCENCE - PERCENT POSITIVE 2 HR,"[2]; Example 1, 5 mg/ml coating",32.0%
same,FLUORESCENCE - PERCENT POSITIVE 3 HR,"[2]; Example 1, 5 mg/ml coating",78.0%
same,FLUORESCENCE - PERCENT POSITIVE 4 HR,"[2]; Example 1, 5 mg/ml coating",84.0%
same,FLUORESCENCE - PERCENT POSITIVE 5 HR,"[2]; Example 1, 5 mg/ml coating",90.0%
same,FLUORESCENCE - PERCENT POSITIVE 6 HR,"[2]; Example 1, 5 mg/ml coating",94.0%
same,FLUORESCENCE - PERCENT POSITIVE 1 HR,"[2]; Example 1, 10 mg/ml coating",0%
same,FLUORESCENCE - PERCENT POSITIVE 2 HR,"[2]; Example 1, 10 mg/ml coating",31.8%
same,FLUORESCENCE - PERCENT POSITIVE 3 HR,"[2]; Example 1, 10 mg/ml coating",63.6%
same,FLUORESCENCE - PERCENT POSITIVE 4 HR,"[2]; Example 1, 10 mg/ml coating",79.5%
same,FLUORESCENCE - PERCENT POSITIVE 5 HR,"[2]; Example 1, 10 mg/ml coating",84.1%
same,FLUORESCENCE - PERCENT POSITIVE 6 HR,"[2]; Example 1, 10 mg/ml coating",86.4%
same,FLUORESCENCE - PERCENT POSITIVE 1 HR,"[2]; Example 1, 20 mg/ml coating",0%
same,FLUORESCENCE - PERCENT POSITIVE 2 HR,"[2]; Example 1, 20 mg/ml coating",61.4%
same,FLUORESCENCE - PERCENT POSITIVE 3 HR,"[2]; Example 1, 20 mg/ml coating",86.4%
same,FLUORESCENCE - PERCENT POSITIVE 4 HR,"[2]; Example 1, 20 mg/ml coating",95.5%
same,FLUORESCENCE - PERCENT POSITIVE 5 HR,"[2]; Example 1, 20 mg/ml coating",97.7%
same,FLUORESCENCE - PERCENT POSITIVE 6 HR,"[2]; Example 1, 20 mg/ml coating",97.7%
POE(15) Glyceryl Monostearate,NO. GROWTH POSITIVE 168 HR,"[1]; Example 5, 50 mg/ml coating",7
same,NO. GROWTH POSITIVE 168 HR,"[1]; Example 5, 100 mg/ml coating",4
same,FLUORESCENCE - PERCENT POSITIVE 1 HR,"[2]; Example 5, 50 mg/ml coating",0%
same,FLUORESCENCE - PERCENT POSITIVE 2 HR,"[2]; Example 5, 50 mg/ml coating",0%
same,FLUORESCENCE - PERCENT POSITIVE 3 HR,"[2]; Example 5, 50 mg/ml coating",42.9%
same,FLUORESCENCE - PERCENT POSITIVE 4 HR,"[2]; Example 5, 50 mg/ml coating",57.1%
same,FLUORESCENCE - PERCENT POSITIVE 1 HR,"[2]; Example 5, 100 mg/ml coating",0%
same,FLUORESCENCE - PERCENT POSITIVE 2 HR,"[2]; Example 5, 100 mg/ml coating",0%
same,FLUORESCENCE - PERCENT POSITIVE 3 HR,"[2]; Example 5, 100 mg/ml coating",0%
same,FLUORESCENCE - PERCENT POSITIVE 4 HR,"[2]; Example 5, 100 mg/ml coating",0%
Decaglyceryl Monomyristate,NO. GROWTH POSITIVE 168 HR,"[1]; Example 5, 50 mg/ml coating",3
same,NO. GROWTH POSITIVE 168 HR,"[1]; Example 5, 100 mg/ml coating",2
same,accuracy of sterilization indicators compared to indicators made with untreated spores,[2],improved
same,FLUORESCENCE - PERCENT POSITIVE 1 HR,"[2]; Example 5, 50 mg/ml coating",0%
same,FLUORESCENCE - PERCENT POSITIVE 2 HR,"[2]; Example 5, 50 mg/ml coating",33.3%
same,FLUORESCENCE - PERCENT POSITIVE 3 HR,"[2]; Example 5, 50 mg/ml coating",33.3%
same,FLUORESCENCE - PERCENT POSITIVE 4 HR,"[2]; Example 5, 50 mg/ml coating",33.3%
same,FLUORESCENCE - PERCENT POSITIVE 1 HR,"[2]; Example 5, 100 mg/ml coating",0%
same,FLUORESCENCE - PERCENT POSITIVE 2 HR,"[2]; Example 5, 100 mg/ml coating",100%
same,FLUORESCENCE - PERCENT POSITIVE 3 HR,"[2]; Example 5, 100 mg/ml coating",100%
same,FLUORESCENCE - PERCENT POSITIVE 4 HR,"[2]; Example 5, 100 mg/ml coating",100%
POE(60) Sorbitol Tetrastearate,NO. GROWTH POSITIVE 168 HR,"[1]; Example 5, 50 mg/ml coating",5
same,FLUORESCENCE - PERCENT POSITIVE 1 HR,"[2]; Example 5, 50 mg/ml coating",0%
same,FLUORESCENCE - PERCENT POSITIVE 2 HR,"[2]; Example 5, 50 mg/ml coating",0%
same,FLUORESCENCE - PERCENT POSITIVE 3 HR,"[2]; Example 5, 50 mg/ml coating",0%
same,FLUORESCENCE - PERCENT POSITIVE 4 HR,"[2]; Example 5, 50 mg/ml coating",0%
